The record followed here is ChEMBL document CHEMBL1201862, “PubChem BioAssay data set” (2004).

Some test systems named below: A549; ACHN; EKVX; HOP-62; HOP-92; K562; Malme-3M; NCI-H226; NCI-H23; OVCAR-4; OVCAR-5; OVCAR-8; SF-539; SK-MEL-28; SNB-19; SW-620; TK-10; U-251; UACC-257; UO-31.
Assay in all cases: NCI-60 cell line screen, 48 h

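Compound exposure: 48 hours, 5 concentrations, 96-well plates. The concentration for 50% growth inhibition is given as GI50.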 Activity calls are given as the source filed them. Cut-off read from the data, not from the text of the source: active = GI50 up to about 1.1 µM and inactive = higher. Where only a bound is given, the exact number is not on record here.

For the molecule `N#CC(C(=O)O)C(c1c(Cl)cccc1Cl)C(C#N)C(=O)O` (stereo not given), the GI50 with A549, in the experiment with ACHN, with EKVX, with HOP-62, in the experiment with HOP-92 and in the experiment on K562 was > 100 µM (inactive) each time. Also, the GI50 in the experiment with Malme-3M, in the experiment with NCI-H226, in the experiment on NCI-H23, in the experiment on OVCAR-4, with OVCAR-5 and with OVCAR-8 was > 100 µM (inactive) each time. The GI50 in the experiment on SF-539, with SK-MEL-28, in the experiment with SNB-19, in the experiment with SW-620, with TK-10 and in the experiment with U-251 was > 100 µM (inactive) in each case. The GI50 in the experiment on UACC-257 and in the experiment with UO-31 was > 100 µM (inactive) in each case.
Regarding `CSC1(SC2=NCCN2)SC2(NCCN2)S1`, the GI50 in the experiment with A549 was 20.3 µM (inactive); in the experiment with ACHN it was 19 µM (inactive); in the experiment with EKVX it was 20.3 µM (inactive); in the experiment on HOP-62, 17.5 µM (inactive); with HOP-92, 13.5 µM (inactive); in the experiment with K562, 12.5 µM (inactive). For the same molecule, the GI50 in the experiment on Malme-3M is 17.6 µM (inactive); with NCI-H226 it was 27.2 µM (inactive); with NCI-H23, 16.3 µM (inactive); in the experiment with OVCAR-4 it was 20.4 µM (inactive); with OVCAR-5, 19.5 µM (inactive); in the experiment with OVCAR-8 it was 19.7 µM (inactive). In addition, the GI50 in the experiment on SF-539 is 16.7 µM (inactive); in the experiment on SK-MEL-28, 20.2 µM (inactive); with SNB-19, 20.3 µM (inactive); with SW-620 it was 9.04 µM (inactive); with TK-10 it was 6.34 µM (inactive); with U-251 it was 17.9 µM (inactive). For the same molecule, the GI50 was 20.6 µM (inactive) with UACC-257 and 17.3 µM (inactive) in the experiment on UO-31.
As to `O=C1C2C3CC(C4C5C=CC(C5)C34)C2C2C3CC(C12)C1C2C=CC(C2)C31` (stereo not given), the GI50 with A549, in the experiment on ACHN, with EKVX, in the experiment with HOP-62, with HOP-92 and with K562 was > 100 µM (inactive) in each case. The GI50 in the experiment with Malme-3M, in the experiment on NCI-H226, in the experiment with NCI-H23, in the experiment with OVCAR-4, with OVCAR-5 and in the experiment with OVCAR-8 was > 100 µM (inactive) throughout. For the same molecule, the GI50 was > 100 µM (inactive) in the experiment with SF-539; > 100 µM (inactive) in the experiment with SK-MEL-28; > 100 µM (inactive) in the experiment with SNB-19; 20.8 µM (inactive) with SW-620; > 100 µM (inactive) in the experiment on TK-10; > 100 µM (inactive) in the experiment with U-251. Moreover, the GI50 in the experiment with UACC-257 and in the experiment with UO-31 was > 100 µM (inactive) in each case.
For `C/C=C(/C)C(=O)OC1CC(C)[C@H]2CC(=O)C(C)=C2CC1C(C)(C)OC(C)=O` (stereo not given in full), the GI50 in the experiment with A549 was 30.3 µM (inactive); with ACHN, 35.6 µM (inactive); in the experiment with EKVX it was 39.1 µM (inactive); with HOP-62, 28.9 µM (inactive); in the experiment with HOP-92 it was 19.6 µM (inactive); in the experiment with K562, 32.6 µM (inactive). For the same molecule, the GI50 with Malme-3M was 19.3 µM (inactive); in the experiment on NCI-H226 it was 37.4 µM (inactive); in the experiment on NCI-H23, 74.8 µM (inactive); in the experiment with OVCAR-4, 22.2 µM (inactive); with OVCAR-5, > 100 µM (inactive); with OVCAR-8 it was 30.8 µM (inactive). The GI50 with SF-539 was 20.7 µM (inactive); in the experiment on SK-MEL-28 it was 31 µM (inactive); in the experiment on SNB-19 it was 34.4 µM (inactive); in the experiment with SW-620, 43.7 µM (inactive); with TK-10 it was 28.8 µM (inactive); in the experiment on U-251, 38.1 µM (inactive). Besides, the GI50 is 20.9 µM (inactive) in the experiment on UACC-257 and 23.5 µM (inactive) in the experiment on UO-31.
`CO[C@H]1C[C@H](O[C@H]2CC[C@@]3(C)[C@H](CC[C@@H]4[C@@H]3CC[C@]3(C)[C@@H](C5=CC(=O)OC5)CC[C@]43O)C2)O[C@H](C)[C@H]1O`: the GI50 in the experiment with A549, with ACHN, with EKVX, in the experiment with HOP-62, in the experiment on HOP-92 and in the experiment with K562 was < 0.01 µM (active) each time. Further, the GI50 with Malme-3M was < 0.01 µM (active); in the experiment on NCI-H226, < 0.0184 µM (active); in the experiment with NCI-H23, < 0.01 µM (active); in the experiment with OVCAR-4, < 0.01 µM (active); with OVCAR-5, < 0.0149 µM (active); in the experiment with OVCAR-8, < 0.01 µM (active). Besides, the GI50 in the experiment on SF-539 is < 0.01 µM (active); in the experiment on SK-MEL-28 it was 0.024 µM (active); in the experiment on SNB-19 it was 0.0158 µM (active); in the experiment on SW-620, < 0.01 µM (active); with TK-10, < 0.0246 µM (active); in the experiment with U-251, < 0.01 µM (active). Moreover, the figures for the GI50 with UACC-257 and in the experiment with UO-31 were < 0.0137 µM (active) and < 0.01 µM (active), respectively.
As for `CC(=O)O[C@H]1CCC2[C@@H]3CCC4=C(O)C(=O)C(C#N)C[C@]4(C)C3CC[C@@]21C` (stereo not given in full), the GI50 was 36.7 µM (inactive) in the experiment with A549; 26.7 µM (inactive) in the experiment with ACHN; 41.7 µM (inactive) with EKVX; 65.5 µM (inactive) with HOP-62; 3.8 µM (inactive) in the experiment on HOP-92; 24.8 µM (inactive) in the experiment on K562. Further, the GI50 was 36.1 µM (inactive) in the experiment with Malme-3M; 24.9 µM (inactive) with NCI-H226; 29.1 µM (inactive) in the experiment with NCI-H23; 30.9 µM (inactive) with OVCAR-4; 75.9 µM (inactive) in the experiment on OVCAR-5; 44.5 µM (inactive) with OVCAR-8. Also, the GI50 with SF-539 is 50.8 µM (inactive); in the experiment on SK-MEL-28 it was 46.7 µM (inactive); with SNB-19, 45.1 µM (inactive); in the experiment on SW-620, 47.1 µM (inactive); in the experiment on TK-10 it was 18.2 µM (inactive); in the experiment with U-251 it was 47.8 µM (inactive). The GI50 in the experiment with UACC-257 is 56.5 µM (inactive); in the experiment with UO-31 it was 13.7 µM (inactive).
Regarding `C=CC(C)CCC(C/C=C(\C)CCCC(C)C)C(=C)CCCC(C)C` (stereo not given), the GI50 in the experiment on A549, with ACHN, with EKVX, in the experiment with HOP-62, with HOP-92 and in the experiment on K562 was > 100 µM (inactive) each time. The GI50 with Malme-3M, in the experiment with NCI-H226, with NCI-H23, in the experiment on OVCAR-4, in the experiment with OVCAR-5 and in the experiment on OVCAR-8 was > 100 µM (inactive) each time. Moreover, the GI50 in the experiment with SF-539, in the experiment with SK-MEL-28, in the experiment with SNB-19, in the experiment with SW-620, in the experiment on TK-10 and in the experiment with U-251 was > 100 µM (inactive) throughout. Further, the GI50 with UACC-257 and in the experiment with UO-31 was > 100 µM (inactive) in each case.
